From patent US9261498B2, “Biomarker for sensitivity to mTOR inhibitor therapy in kidney cancer” (The Regents of the University of California, priority 2005, dated 2016)

Tested on: SN12C-CSCG and ACHN-CSCG xenograft tumors
Assay: Subcutaneous xenograft tumor growth, parental tumors
Type: in vivo, SCID mice
Conditions: 0.1 mg/kg CCI-779 daily
Method: FIGS. 1A-1E. Effects of VHL knockdown on sensitivity to CCI-779. (a) Immunoblotting of lysates derived from shRNA and control (empty vector, V) in SN12C, using antibodies against VHL (both isoforms detected), HIF-1α, HIF-2α, GLUT-1, CA-IX and β-Actin (as a loading control). (b) SN12C-CSCG and SN12C-VHLshRNA cells (1×10^5) were cultured in 10% serum rich media, in the presence of vehicle, 1 or 10 nM of CCI-779 for 5 days. Cell growth was measured by cell counts (n=3). […] (c) SN12C-CSCG (C1) and SN12C-CSCG shVHL RNA (C2) cells were injected into SCID mice at a dose of 1×10^6 cells per mouse (n=30). […] Phosphorylated-S6 protein in SN12C-CSCG and SN12C-VHL shRNA xenograft tumors treated with vehicle or 0.1 mg/kg of CCI-779 was measured by immunoblot C3 and C4). […]
For in vitro experiments, cells (5×10^4) were plated and treated with 1 and 10 nM CCI-779 (kind gift of J. Gibbons, Wyeth) or vehicle (ethanol). On day 5-post treatment, cells were trypsinized, resuspended in DMEM with 10% FBS and counted using the VI CELL counter (Beckman Coulter), according to the manufacturer's instructions. […] In vivo tumorigenicity was measured by injection of 5×10^5 SN12C-CSCG, ACHN-CSCG, SN12C-CSCG-VHLshRNAi, ACHN-CSCG-VHLshRNAi, SN12C-CSCG-VHLshRNAi-pBABE, SN12C-CSCG-VHLshRNAi-pBABE-HA-HIF-2α (P405A; P531A) cells in 100 μl of Matrigel (Collaborative Biomedical) subcutaneously into the flanks of SCID mice. […]

Compound: CO[C@H]1C[C@@H]2CC[C@@H](C)[C@@](O)(O2)C(=O)C(=O)N2CCCC[C@H]2C(=O)O[C@H]([C@H](C)C[C@@H]2CC[C@@H](OC(=O)C(C)(CO)CO)[C@H](OC)C2)CC(=O)[C@H](C)/C=C(\C)[C@@H](O)[C@@H](OC)C(=O)[C@H](C)C[C@H](C)/C=C/C=C/C=C/1C [CCI-779]
- growth of the parental tumors: no effect
